Measurements reported in the supplement of paper PMC10307832.

Key:
Test in all cases: relative viability (nuclei count vs DMSO), 5 days (fraction); higher = more cells survive
GSK-J4 + Pictilisib = compound: CCOC(=O)CCNc1cc(N2CCc3ccccc3CC2)nc(-c2ccccn2)n1 [GSK-J4] + CS(=O)(=O)N1CCN(Cc2cc3nc(-c4cccc5[nH]ncc45)nc(N4CCOCC4)c3s2)CC1 [Pictilisib] (partner 1 µM)
How it was run: (§1)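 Cells from lung cancer lines were seeded into 1536-well plates and, one day later, dosed by pin tool. Treatments were either a single drug or a fixed dose of an anchor drug with five library-drug doses (not always all listed) in √10 steps. After 5 days, nuclei were stained in a one-step fixation (final 0.05% Triton X-100, 1% formaldehyde, 1 ug/ml Hoechst) and counted on 4× images, and relative viability is the treated-to-vehicle nuclei ratio, as the median of duplicate plates.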

GSK-J4 + Decitabine = compound: CCOC(=O)CCNc1cc(N2CCc3ccccc3CC2)nc(-c2ccccn2)n1 [GSK-J4] + Nc1ncn([C@H]2C[C@H](O)[C@@H](CO)O2)c(=O)n1 [Decitabine] (partner 2 µM)
How it was run: as §1

AZ3146 + Trametinib = compound: CN1CCC(CC1)OC2=CC(=C(C=C2)NC3=NC=C4C(=N3)N(C(=O)N4C)C5CCCC5)OC [AZ3146] + CC(=O)Nc1cccc(-n2c(=O)n(C3CC3)c(=O)c3c(Nc4ccc(I)cc4F)n(C)c(=O)c(C)c32)c1 [Trametinib] (partner 0.02 µM)
How it was run: as §1

AZ3146 + Crizotinib = compound: CN1CCC(CC1)OC2=CC(=C(C=C2)NC3=NC=C4C(=N3)N(C(=O)N4C)C5CCCC5)OC [AZ3146] + C[C@@H](Oc1cc(-c2cnn(C3CCNCC3)c2)cnc1N)c1c(Cl)ccc(F)c1Cl [Crizotinib] (partner 1 µM)
How it was run: as §1

UMC-11
relative viability (GSK-J4 + Pictilisib; first compound 0.5 µM): 0.739 | relative viability (GSK-J4 + Pictilisib; first compound 1.581 µM): 0.527 | relative viability (GSK-J4 + Pictilisib; first compound 5 µM): 0.499 | relative viability (GSK-J4 + Pictilisib; first compound 15.81 µM): 0.9 | relative viability (GSK-J4 + Pictilisib; first compound 50 µM): 0.256 | relative viability (GSK-J4 + Decitabine; first compound 0.5 µM): 0.93 | relative viability (GSK-J4 + Decitabine; first compound 1.581 µM): 0.642 | relative viability (GSK-J4 + Decitabine; first compound 15.81 µM): 0.582 | relative viability (GSK-J4 + Decitabine; first compound 50 µM): 0.343 | relative viability (AZ3146 + Trametinib; first compound 0.08 µM): 0.575 | relative viability (AZ3146 + Trametinib; first compound 0.253 µM): 0.725 | relative viability (AZ3146 + Trametinib; first compound 0.8 µM): 0.629 | relative viability (AZ3146 + Trametinib; first compound 2.53 µM): 0.626 | relative viability (AZ3146 + Trametinib; first compound 8 µM): 0.313 | relative viability (AZ3146 + Crizotinib; first compound 0.08 µM): 0.569 | relative viability (AZ3146 + Crizotinib; first compound 0.253 µM): 0.636 | relative viability (AZ3146 + Crizotinib; first compound 0.8 µM): 0.461 | relative viability (AZ3146 + Crizotinib; first compound 2.53 µM): 0.177 | relative viability (AZ3146 + Crizotinib; first compound 8 µM): 0.136
